Measurements taken from the supplement of paper PMC10883282.

How the values were obtained:
Assay in all cases: relative viability vs DMSO control (72 h) (fraction); higher = more viable cells
SK-ES-1 = tested on: SK-ES-1
Outline: (§1)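 Relative viability is percent growth read by ATPLite and averaged over up to triplicate wells. Sarcoma cells were seeded in 384-well plates to reach 80–90% confluence and given 2.5 µl of serially diluted compound after 24 h, from source plates of 10 mM to 0.0002 mM. Incubation lasted 72 h at 37 °C, 5% CO2, with 0.1% DMSO vehicle and a 5 µM positive control, and the data were rescaled so 1 equals full and 0 equals none.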

SW982 = tested on: SW982
Outline: as §1

A204 = tested on: A204
Outline: as §1

MES-SA = tested on: MES-SA
Outline: as §1

RD = tested on: RD
Outline: as §1

HS729 = tested on: HS729
Outline: as §1

SK-LMS-1 = tested on: SK-LMS-1
Outline: as §1

SW1353 = tested on: SW1353
Outline: as §1

SW872 = tested on: SW872
Outline: as §1

G401 = tested on: G401
Outline: as §1

VA-ES-BJ = tested on: VA-ES-BJ
Outline: as §1

KHOS-240S = tested on: KHOS-240S
Outline: as §1

C=CC(=O)Nc1cccc(Nc2nc(Nc3ccc(N4CCN(C(C)=O)CC4)cc3OC)ncc2C(F)(F)F)c1 [Rociletinib]
Details	relative viability
A204, 0.00017 µM	1.06
A204, 0.00051 µM	1.08
A204, 0.00152 µM	1.13
A204, 0.00457 µM	1.1
A204, 0.01372 µM	1.12
A204, 0.04115 µM	1.04
A204, 0.1235 µM	1.11
A204, 0.3704 µM	1.08
A204, 1.111 µM	1.03
A204, 3.333 µM	0.589
A204, 10 µM	0.302
G401, 0.00017 µM	1.04
G401, 0.00051 µM	1.07
G401, 0.00152 µM	1.04
G401, 0.00457 µM	1.05
G401, 0.01372 µM	1.04
G401, 0.04115 µM	1.02
G401, 0.1235 µM	1.05
G401, 0.3704 µM	1.02
G401, 1.111 µM	0.827
G401, 3.333 µM	0.54
G401, 10 µM	0.211
HS729, 0.00017 µM	1.01
HS729, 0.00051 µM	0.925
HS729, 0.00152 µM	0.9024
HS729, 0.00457 µM	0.9205
HS729, 0.01372 µM	0.902
HS729, 0.04115 µM	0.924
HS729, 0.1235 µM	0.89
HS729, 0.3704 µM	0.812
HS729, 1.111 µM	0.697
HS729, 3.333 µM	0.573
HS729, 10 µM	0.343
KHOS-240S, 0.00017 µM	1.08
KHOS-240S, 0.00051 µM	1.06
KHOS-240S, 0.00152 µM	1.07
KHOS-240S, 0.00457 µM	1.07
KHOS-240S, 0.01372 µM	1.07
KHOS-240S, 0.04115 µM	1.03
KHOS-240S, 0.1235 µM	1.08
KHOS-240S, 0.3704 µM	1.02
KHOS-240S, 1.111 µM	0.928
KHOS-240S, 3.333 µM	0.774
KHOS-240S, 10 µM	0.491
MES-SA, 0.00017 µM	0.95
MES-SA, 0.00051 µM	0.955
MES-SA, 0.00152 µM	0.942
MES-SA, 0.00457 µM	0.957
MES-SA, 0.01372 µM	0.942
MES-SA, 0.04115 µM	0.944
MES-SA, 0.1235 µM	0.926
MES-SA, 0.3704 µM	0.9383
MES-SA, 1.111 µM	0.765
MES-SA, 3.333 µM	0.329
MES-SA, 10 µM	0.193
RD, 0.00017 µM	1.04
RD, 0.00051 µM	1.078
RD, 0.00152 µM	1.08
RD, 0.00457 µM	1.112
RD, 0.01372 µM	1.11
RD, 0.04115 µM	1.08
RD, 0.1235 µM	1.11
RD, 0.3704 µM	1.05
RD, 1.111 µM	0.911
RD, 3.333 µM	0.594
RD, 10 µM	0.293
SK-ES-1, 0.00017 µM	0.973
SK-ES-1, 0.00051 µM	1.02
SK-ES-1, 0.00152 µM	1.03
SK-ES-1, 0.00457 µM	1.06
SK-ES-1, 0.01372 µM	1
SK-ES-1, 0.04115 µM	1.03
SK-ES-1, 0.1235 µM	1.02
SK-ES-1, 0.3704 µM	0.943
SK-ES-1, 1.111 µM	0.658
SK-ES-1, 3.333 µM	0.232
SK-ES-1, 10 µM	0.0621
SK-LMS-1, 0.00017 µM	1.07
SK-LMS-1, 0.00051 µM	1.089
SK-LMS-1, 0.00152 µM	1.07
SK-LMS-1, 0.00457 µM	1.07
SK-LMS-1, 0.01372 µM	1.05
SK-LMS-1, 0.04115 µM	1.03
SK-LMS-1, 0.1235 µM	1.04
SK-LMS-1, 0.3704 µM	0.961
SK-LMS-1, 1.111 µM	0.847
SK-LMS-1, 3.333 µM	0.638
SK-LMS-1, 10 µM	0.373
SW872, 0.00017 µM	1.1
SW872, 0.00051 µM	1.08
SW872, 0.00152 µM	1.07
SW872, 0.00457 µM	1.07
SW872, 0.01372 µM	1.05
SW872, 0.04115 µM	1.048
SW872, 0.1235 µM	1.04
SW872, 0.3704 µM	1.01
SW872, 1.111 µM	0.89
SW872, 3.333 µM	0.713
SW872, 10 µM	0.475
SW982, 0.00017 µM	1.01
SW982, 0.00051 µM	1.05
SW982, 0.00152 µM	1.08
SW982, 0.00457 µM	1.07
SW982, 0.01372 µM	1.05
SW982, 0.04115 µM	1.04
SW982, 0.1235 µM	1.04
SW982, 0.3704 µM	1.05
SW982, 1.111 µM	0.911
SW982, 3.333 µM	0.6095
SW982, 10 µM	0.265
SW1353, 0.00017 µM	1.04
SW1353, 0.00051 µM	1
SW1353, 0.00152 µM	1.01
SW1353, 0.00457 µM	1.06
SW1353, 0.01372 µM	1
SW1353, 0.04115 µM	1.01
SW1353, 0.1235 µM	1.01
SW1353, 0.3704 µM	0.962
SW1353, 1.111 µM	0.769
SW1353, 3.333 µM	0.594
SW1353, 10 µM	0.338
VA-ES-BJ, 0.00017 µM	1.04
VA-ES-BJ, 0.00051 µM	1.05
VA-ES-BJ, 0.00152 µM	1.02
VA-ES-BJ, 0.00457 µM	1.03
VA-ES-BJ, 0.01372 µM	0.981
VA-ES-BJ, 0.04115 µM	0.991
VA-ES-BJ, 0.1235 µM	0.994
VA-ES-BJ, 0.3704 µM	0.972
VA-ES-BJ, 1.111 µM	0.915
VA-ES-BJ, 3.333 µM	0.648
VA-ES-BJ, 10 µM	0.399

CN(C)C[C@@H]1CCn2cc(c3ccccc32)C2=C(C(=O)NC2=O)c2cn(c3ccccc23)CCO1 [Ruboxistaurin]
Details	relative viability
A204, 0.00017 µM	1.08
A204, 0.00051 µM	1.07
A204, 0.00152 µM	1.08
A204, 0.00457 µM	1.06
A204, 0.01372 µM	1.06
A204, 0.04115 µM	1.08
A204, 0.1235 µM	1.03
A204, 0.3704 µM	1.05
A204, 1.111 µM	0.881
A204, 3.333 µM	0.808
A204, 10 µM	0.0478
G401, 0.00017 µM	1.03
G401, 0.00051 µM	1.01
G401, 0.00152 µM	0.988
G401, 0.00457 µM	1.01
G401, 0.01372 µM	1.02
G401, 0.04115 µM	0.961
G401, 0.1235 µM	1.02
G401, 0.3704 µM	1.01
G401, 1.111 µM	0.958
G401, 3.333 µM	0.938
G401, 10 µM	0.0283
HS729, 0.00017 µM	0.917
HS729, 0.00051 µM	0.936
HS729, 0.00152 µM	0.8749
HS729, 0.00457 µM	0.882
HS729, 0.01372 µM	0.895
HS729, 0.04115 µM	0.939
HS729, 0.1235 µM	0.894
HS729, 0.3704 µM	0.819
HS729, 1.111 µM	0.917
HS729, 3.333 µM	0.835
HS729, 10 µM	0.812
KHOS-240S, 0.00017 µM	1.04
KHOS-240S, 0.00051 µM	1.05
KHOS-240S, 0.00152 µM	1.03
KHOS-240S, 0.00457 µM	1.04
KHOS-240S, 0.01372 µM	1.02
KHOS-240S, 0.04115 µM	1.02
KHOS-240S, 0.1235 µM	1.03
KHOS-240S, 0.3704 µM	1.014
KHOS-240S, 1.111 µM	1.04
KHOS-240S, 3.333 µM	1.03
KHOS-240S, 10 µM	0.715
MES-SA, 0.00017 µM	0.918
MES-SA, 0.00051 µM	0.909
MES-SA, 0.00152 µM	0.9276
MES-SA, 0.00457 µM	0.9006
MES-SA, 0.01372 µM	0.923
MES-SA, 0.04115 µM	0.91
MES-SA, 0.1235 µM	0.898
MES-SA, 0.3704 µM	0.887
MES-SA, 1.111 µM	0.84
MES-SA, 3.333 µM	0.7551
MES-SA, 10 µM	0.428
RD, 0.00017 µM	1.09
RD, 0.00051 µM	1.09
RD, 0.00152 µM	1.11
RD, 0.00457 µM	1.12
RD, 0.01372 µM	1.11
RD, 0.04115 µM	1.1
RD, 0.1235 µM	1.12
RD, 0.3704 µM	1.1
RD, 1.111 µM	1.127
RD, 3.333 µM	1.08
RD, 10 µM	0.857
SK-ES-1, 0.00017 µM	1.03
SK-ES-1, 0.00051 µM	1.06
SK-ES-1, 0.00152 µM	1.07
SK-ES-1, 0.00457 µM	1.08
SK-ES-1, 0.01372 µM	1.07
SK-ES-1, 0.04115 µM	1.02
SK-ES-1, 0.1235 µM	1.01
SK-ES-1, 0.3704 µM	0.963
SK-ES-1, 1.111 µM	0.869
SK-ES-1, 3.333 µM	0.74
SK-ES-1, 10 µM	0.421
SK-LMS-1, 0.00017 µM	1.05
SK-LMS-1, 0.00051 µM	1.02
SK-LMS-1, 0.00152 µM	1.05
SK-LMS-1, 0.00457 µM	1.05
SK-LMS-1, 0.01372 µM	1.09
SK-LMS-1, 0.04115 µM	1.08
SK-LMS-1, 0.1235 µM	1.05
SK-LMS-1, 0.3704 µM	0.995
SK-LMS-1, 1.111 µM	0.922
SK-LMS-1, 3.333 µM	0.778
SK-LMS-1, 10 µM	0.4619
SW872, 0.00017 µM	1
SW872, 0.00051 µM	1.04
SW872, 0.00152 µM	1.02
SW872, 0.00457 µM	1.06
SW872, 0.01372 µM	0.989
SW872, 0.04115 µM	1.04
SW872, 0.1235 µM	1.01
SW872, 0.3704 µM	1.02
SW872, 1.111 µM	0.9094
SW872, 3.333 µM	0.846
SW872, 10 µM	0.599
SW982, 0.00017 µM	1.03
SW982, 0.00051 µM	1.03
SW982, 0.00152 µM	1.04
SW982, 0.00457 µM	1.03
SW982, 0.01372 µM	1.05
SW982, 0.04115 µM	1.04
SW982, 0.1235 µM	1.04
SW982, 0.3704 µM	1.03
SW982, 1.111 µM	0.949
SW982, 3.333 µM	0.846
SW982, 10 µM	0.349
SW1353, 0.00017 µM	1.02
SW1353, 0.00051 µM	1.01
SW1353, 0.00152 µM	0.983
SW1353, 0.00457 µM	0.99
SW1353, 0.01372 µM	0.975
SW1353, 0.04115 µM	0.994
SW1353, 0.1235 µM	0.961
SW1353, 0.3704 µM	0.977
SW1353, 1.111 µM	0.894
SW1353, 3.333 µM	0.827
SW1353, 10 µM	0.252
VA-ES-BJ, 0.00017 µM	0.988
VA-ES-BJ, 0.00051 µM	0.999
VA-ES-BJ, 0.00152 µM	0.984
VA-ES-BJ, 0.00457 µM	0.988
VA-ES-BJ, 0.01372 µM	0.982
VA-ES-BJ, 0.04115 µM	0.996
VA-ES-BJ, 0.1235 µM	0.9734
VA-ES-BJ, 0.3704 µM	0.945
VA-ES-BJ, 1.111 µM	0.861
VA-ES-BJ, 3.333 µM	0.825
VA-ES-BJ, 10 µM	0.651
